{"source": "paper PMC11946187", "about": "(Viruses, 2025)", "key": {"IBV RdRp (RNA synthesis)": {"tested_on": "IBV RdRp (RNA synthesis)", "type": "biochemical, influenza B virus"}, "[1]": {"target": "IBV endonuclease (full-length IBV RdRp complex PA/PB1/PB2) (Influenza B virus, UniProt Q5V8Z9)", "assay": "biochemical"}, "[2]": {"target": "SFTSV endonuclease (full-length L protein) (Dabie bandavirus, UniProt I0DF35)", "assay": "biochemical", "set-up": "species or system severe fever with thrombocytopenia syndrome virus"}, "[3]": {"tested_on": "SNV L protein (RNA synthesis)", "type": "biochemical, Sin Nombre virus"}, "[4]": {"target": "SFTSV L protein (RNA synthesis) (Dabie bandavirus, UniProt I0DF35)", "type": "biochemical, severe fever with thrombocytopenia syndrome virus"}, "[5]": {"target": "SNV endonuclease (full-length L protein) (Sin Nombre orthohantavirus, UniProt A0A059WLS4)", "assay": "biochemical", "set-up": "species or system Sin Nombre virus"}}, "note": "Entries after “also recorded” stand apart in the source; their conditions may differ. Like-named read-outs stand apart in the source and are kept apart here.", "data": [{"smiles": "O=C1c2c(O)c(=O)ccn2N([C@@H]2c3ccccc3SCc3c2ccc(F)c3F)[C@@H]2COCCN12", "note": "[BXA, Baloxavir acid, reference compound]", "values": [{"measurement": "inhibition of RNA synthesis by IBV", "setting": "IBV RdRp (RNA synthesis)", "result": "lack of inhibition of; also recorded: did not inhibit RNA synthesis"}, {"measurement": "IC50", "setting": "[1]; IC50 (μM) IBV (Figure 7B)", "result": "0.21 ± 0.006", "unit": "µM"}, {"measurement": "IC50", "setting": "[1]; IC50, endonuclease activity of IBV", "result": 0.209, "unit": "µM"}, {"measurement": "IC50", "setting": "[2]; IC50 (μM) SFTSV (Figure 7B)", "result": 16, "unit": "µM"}, {"measurement": "IC50", "setting": "[2]; IC50, SFTSV endonuclease activity", "result": 16.5, "unit": "µM"}, {"measurement": "inhibition of RNA synthesis by SNV", "setting": "[3]", "result": "lack of inhibition of; also recorded: did not inhibit RNA synthesis"}, {"measurement": "inhibition of RNA synthesis by SFTSV", "setting": "[4]", "result": "lack of inhibition of; also recorded: did not inhibit RNA synthesis"}, {"measurement": "concentration from which inhibition of SNV endonuclease became evident", "setting": "[5]", "result": "~ 250 µM"}, {"measurement": "IC50", "setting": "[5]; IC50 (μM) SNV (Figure 7B)", "result": "> 100", "unit": "µM"}, {"measurement": "IC50", "setting": "[5]; IC50, SNV endonuclease activity", "result": 622, "unit": "µM"}]}, {"smiles": "O=C1c2c(O)c(=O)ccn2N(C2c3ccccc3SCc3c2ccc(F)c3F)C2COCCN12", "note": "[kCOT909, (R)-12-((R)-7,8-difluoro-6,11-dihydrodibenzo[b,e]thiepin-11-yl)-7-hydroxy-3,4,12,12a-tetrahydro-1H-[1,4]oxazino[3,4c]pyrido[2,1-f] [1,2,4]triazine-6,8-dione]", "values": [{"measurement": "inhibition of RNA synthesis by IBV", "setting": "IBV RdRp (RNA synthesis)", "result": "lack of inhibition of RNA synthesis"}, {"measurement": "IC50", "setting": "[1]; IC50 (μM) IBV (Figure 7B)", "result": "0.32 ± 0.006", "unit": "µM"}, {"measurement": "IC50", "setting": "[2]; IC50 (μM) SFTSV (Figure 7B)", "result": "> 100", "unit": "µM"}, {"measurement": "inhibition of RNA synthesis by SNV", "setting": "[3]", "result": "lack of inhibition of RNA synthesis"}, {"measurement": "inhibition of RNA synthesis by SFTSV", "setting": "[4]", "result": "lack of inhibition of RNA synthesis"}, {"measurement": "IC50", "setting": "[5]; IC50 (μM) SNV (Figure 7B)", "result": "> 100", "unit": "µM"}]}, {"smiles": "O=C1c2c(O)c(=O)ccn2N([C@@H]2c3ccccc3CSc3ccccc32)[C@@H]2COCCN12", "note": "[kCOT912, (R)-12-((R)-6,11-dihydrodibenzo[b,e]thiepin-11-yl)-7-hydroxy-3,4,12,12a-tetrahydro-1H-[1,4]oxazino[3,4-c]pyrido[2,1-f][1,2,4]triazine-6,8-dione]", "values": [{"measurement": "inhibition of RNA synthesis by IBV", "setting": "IBV RdRp (RNA synthesis)", "result": "lack of inhibition of RNA synthesis"}, {"measurement": "IC50", "setting": "[1]", "result": "> 100", "unit": "µM"}, {"measurement": "IC50", "setting": "[2]; IC50 (μM) SFTSV (Figure 7B)", "result": "> 100", "unit": "µM"}, {"measurement": "inhibition of RNA synthesis by SNV", "setting": "[3]", "result": "lack of inhibition of RNA synthesis"}, {"measurement": "inhibition of RNA synthesis by SFTSV", "setting": "[4]", "result": "lack of inhibition of RNA synthesis"}, {"measurement": "IC50", "setting": "[5]; IC50 (μM) SNV (Figure 7B)", "result": "> 100", "unit": "µM"}]}, {"smiles": "O=C(O)c1cn2c(c(O)c1=O)C(=O)N1CCOC[C@H]1N2[C@@H]1c2ccccc2SCc2c1ccc(F)c2F", "note": "[kCOT923, (R)-12-((S)-7,8-difluoro-6,11-dihydrodibenzo[b,e]thiepin-11-yl)-7-hydroxy-6,8-dioxo-3,4,6,8,12,12a-hexahydro-1H-[1,4]oxazino[3,4-c]pyrido[2,1-f][1,2,4]triazine-9-carboxylic acid]", "values": [{"measurement": "inhibition of RNA synthesis by IBV", "setting": "IBV RdRp (RNA synthesis)", "result": "lack of inhibition of RNA synthesis"}, {"measurement": "IC50", "setting": "[1]", "result": "0.41 ± 0.02", "unit": "µM"}, {"measurement": "IC50", "setting": "[2]; IC50 (μM) SFTSV (Figure 7B)", "result": 41, "unit": "µM"}, {"measurement": "inhibition of RNA synthesis by SNV", "setting": "[3]", "result": "lack of inhibition of RNA synthesis"}, {"measurement": "inhibition of RNA synthesis by SFTSV", "setting": "[4]", "result": "lack of inhibition of RNA synthesis"}, {"measurement": "IC50", "setting": "[5]; IC50 (μM) SNV (Figure 7B)", "result": "13 ± 3", "unit": "µM"}]}, {"smiles": "CC(C)N1CN([C@H]2c3ccccc3SCc3c2ccc(F)c3F)n2ccc(=O)c(O)c2C1=O", "note": "[kCPF855]", "values": [{"measurement": "inhibition of RNA synthesis by IBV", "setting": "IBV RdRp (RNA synthesis)", "result": "lack of inhibition of RNA synthesis"}, {"measurement": "IC50", "setting": "[1]", "result": "0.71 ± 0.03", "unit": "µM"}, {"measurement": "IC50", "setting": "[2]; IC50 (μM) SFTSV (Figure 7B)", "result": "> 100", "unit": "µM"}, {"measurement": "inhibition of RNA synthesis by SNV", "setting": "[3]", "result": "lack of inhibition of RNA synthesis"}, {"measurement": "inhibition of RNA synthesis by SFTSV", "setting": "[4]", "result": "lack of inhibition of RNA synthesis"}, {"measurement": "IC50", "setting": "[5]; IC50 (μM) SNV (Figure 7B)", "result": "> 100", "unit": "µM"}]}]}
